Usually IC50 stands for the concentration at which inhibition is half-maximal.

Two compounds from patent publication US6630124B1, “Combination therapy with VIP antagonist” (Ramot-University Authority for Applied Research and …, priority 1998, dated 2003) can be followed below.

In brackets after ≈: the same amount, converted by molar mass. Entries after “also recorded” stand apart in the source; their conditions may differ. Read-outs that look alike come from different tables or passages of the source.

The subject of data set [1] is NCI-H727 non-small cell lung cancer (carcinoid). Briefly: MTS cell proliferation assay, SNH and chemotherapy. Type of data set: cell-based. The following applies: for nature of the combined effect with SNH: combination with SNH. How it is done:
NCI-H727 and LNCaP were grown in RPMI 1640 medium supplemented with 10% heat inactivated FCS, L-glutamine and antibiotics. HT-29 and CT-26 were grown in DMEM medium supplemented with 10% heat-inactivated FCS (fetal calf serum), L-glutamine and antibiotics. The cells were cultured in 5% CO2/95% air at […] and used during their exponential growth phase. Routinely, the cells which are adherent, were split when a subconfluent monolayer was formed. In different experiments, various concentration of FCS were used. For growth inhibition experiments, subconfluent adherent cells were washed with PBS and treated with trypsin/versene. The cells were pelleted and resuspended in medium to a final concentration of 75,000 cells/mL for NCI-H727. 50,000 cells/mL for LNCaP and HT-29 and 25000 cells/mL for CT-26. These different concentrations were used in order to avoid confluence in the wells at the end of the experiment and correspond to the different doubling times of the cell lines. On day 0, cells suspensions […] were dispensed using a multi-channel pipet into the individual wells of a 96-well tissue culture plate (Nuncion, Nunc Brand Products). […] Cells were incubated for 24 hours in a humidified atmosphere of 95% air/5% CO2 at 37° C. before treatment. On day 1, the cells were treated with different drugs and schedules and maintained under the same conditions. On day 4, viable cell number was determined by a modified MTT assay i.e., MTS non-radioactive cell proliferation assay (Promega). […] Results were finally expressed as percentage of the control, which was obtained from the samples with no drug treatment. Dose-response curves were plotted using a Sigma-Plot software and statistically analyzed using Student test. To determine the effect of the lipophilic VIP antagonist SNH on cell proliferation, cells plated in 96-well microplates for 24 hours as described, were treated with various concentrations of SNH. The peptide was diluted in PBS and […] of the peptide solution was added to each well for a final concentration of the peptide between 10^−510^−9 M. The solvent was added to the control wells. […] A dose-response curve was obtained at concentrations ranging from 2 μM-10 μM (see, FIG. 2). […] The effects of an 8 hours treatment were slightly less, showing that most of the effect is in the initial hours of exposure and much more dose than time dependent. […] For the experiments with the combinations of VIP antagonists and chemotherapeutic agents, on day 0, the cells were plated for 24 hours in medium supplemented with 5% FCS. On day 1, the peptide was added to the wells followed 1 hour later by the chemotherapeutic agents. […] The chemotherapeutic drugs were tested over 7 concentrations, covering as much as possible of the dose response curve of each individual drug. 24 hours later, the medium was exchanged and the cells incubated under the same conditions for another 48 hours. On day 4 the number of viable cells was determined by MTS assay.
(Formazan colour is commonly taken as a measure of viable cells.)

In data set [2] the test system is CT-26 murine colon cancer. The data set can be described thus: MTS cell proliferation assay, SNH and chemotherapy. Type of data set: cell-based. The note with it: CT-26, SNH and CPT-11 (FIG. 10). How it is done:
NCI-H727 and LNCaP were grown in RPMI 1640 medium supplemented with 10% heat inactivated FCS, L-glutamine and antibiotics. HT-29 and CT-26 were grown in DMEM medium supplemented with 10% heat-inactivated FCS (fetal calf serum), L-glutamine and antibiotics. The cells were cultured in 5% CO2/95% air at […] and used during their exponential growth phase. Routinely, the cells which are adherent, were split when a subconfluent monolayer was formed. In different experiments, various concentration of FCS were used.
For growth inhibition experiments, subconfluent adherent cells were washed with PBS and treated with trypsin/versene. The cells were pelleted and resuspended in medium to a final concentration of 75,000 cells/mL for NCI-H727. 50,000 cells/mL for LNCaP and HT-29 and 25000 cells/mL for CT-26. […]
On day 4, viable cell number was determined by a modified MTT assay i.e., MTS non-radioactive cell proliferation assay (Promega). Briefly, […] of freshly prepared MTS/PMS solution was added to each individual well and after 1-3 hours of incubation (the optimal time was determined for each cell line) absorbance at 490 nm was measured using a multiscan plate reader. Results were finally expressed as percentage of the control, which was obtained from the samples with no drug treatment. Dose-response curves were plotted using a Sigma-Plot software and statistically analyzed using Student test. […]

A further data set relates to HT-29 human colon cancer. The data set can be described thus: MTS cell proliferation assay, SNH and chemotherapy. The following applies: HT-29, SNH and CPT-11 (FIG. 11). The data set is classed as cell-based. How it is done: NCI-H727 and LNCaP were grown in RPMI 1640 medium supplemented with 10% heat inactivated FCS, L-glutamine and antibiotics. HT-29 and CT-26 were grown in DMEM medium supplemented with 10% heat-inactivated FCS (fetal calf serum), L-glutamine and antibiotics. The cells were cultured in 5% CO2/95% air at […] and used during their exponential growth phase. Routinely, the cells which are adherent, were split when a subconfluent monolayer was formed. In different experiments, various concentration of FCS were used. For growth inhibition experiments, subconfluent adherent cells were washed with PBS and treated with trypsin/versene. The cells were pelleted and resuspended in medium to a final concentration of 75,000 cells/mL for NCI-H727. 50,000 cells/mL for LNCaP and HT-29 and 25000 cells/mL for CT-26. These different concentrations were used in order to avoid confluence in the wells at the end of the experiment and correspond to the different doubling times of the cell lines. […] On day 4, viable cell number was determined by a modified MTT assay i.e., MTS non-radioactive cell proliferation assay (Promega). […] Results were finally expressed as percentage of the control, which was obtained from the samples with no drug treatment. Dose-response curves were plotted using a Sigma-Plot software and statistically analyzed using Student test. […] On day 4 the number of viable cells was determined by MTS assay.

Data set [3] deals with cell lines derived from colon cancer and prostate cancer. Briefly: MTS colorimetric proliferation assay, VIP antagonist with chemotherapeutic agents (Example I). Type of data set: cell-based. The note with it: combination with stearyl-Nle17-neurotensis 6-11 VIP 7-28. Here is the method:
Assays were performed with cell lines derived from colon cancer and prostate cancer. Proliferation was assessed using the MTS colorimetric assay of mitochondrial function for living cells. The VIP antagonist (stearyl-Nle17-neurotensis 6-11 VIP 7-28) was used.

The test system of another data set is MDA-MB231 xenografts. The data set can be described thus: MDA-MB231 breast cancer xenografts in nude mice. Type of data set: in vivo, Balb/c nude mice. The following applies: after 4 weeks; VIPhyb 10 μg/day s.c., Taxol 1.5 mg i.p. once; PBS control 1121 mm^3. Here is the method:
To test the proliferative aspects of VIPhybrid analogs in vivo, nude mice bearing breast cancer xenografts were utilized. Female athymic Balb/c nude mice, 4-5 weeks old, were housed in a pathogen-free temperature controlled isolation room and the diet consisted of autoclaved rodent chow and autoclaved water given ad libitum. MDA-MB231 cells (1×10^7) were injected into the right flank of each mouse subcutaneously. […] PBS (100 μl) or VIPhyb analogs (10 μg/day) were injected subcutaneously adjacent to the tumor. Taxol was injected once (1.5 mg i.p.) after 2 weeks. The tumor volume (height×width×depth) was determined twice weekly by calipers and recorded.

For data set [4], the system named is CAPAN pancreatic cancer cell line. The data set can be described thus: MTT assay, Taxol with or without SNVIPhyb. Type of data set: cell-based. From the text: (§1) The ability of SNVIPhyb to inhibit cancer growth was investigated.
For data set [5], the system named is MCF-7 breast cancer cells. Briefly: MTT assay, Taxol with or without SNVIPhyb. The data set is classed as cell-based. The following applies: for IC50: Homo sapiens, MCF7.
From the text: as §1

The test system of data set [6] is NCI-H157 lung cancer cell line. Briefly: MTT assay, Taxol with or without SNVIPhyb. The note with it: Homo sapiens. Type of data set: cell-based.
From the text: as §1

Data set [7] concerns NCI-H1299 lung cancer cell line. Briefly: MTT assay, Taxol with or without SNVIPhyb. The data set is classed as cell-based. The note with it: Homo sapiens.
From the text: as §1

Data set [8] has as its system PC-3 prostate cancer cell line. Briefly: MTT assay, Taxol with or without SNVIPhyb. Type of data set: cell-based.
From the text: as §1

Data set [9] deals with NCI-H727 non-small cell lung cancer (carcinoid). The data set can be described thus: MTS cell proliferation assay, SNH and chemotherapy. Type of data set: cell-based. The following applies: 8 μM SNH 2 h, then Taxol 0.003-1 μg/ml 4 h, then fresh medium 66 h.
For data set [10], the system named is lung (NCI-H157 and NCI-H1299), breast (MCF-7), pancreatic (CAPAN) and prostate (PC-3) cancer cell lines. Briefly: MTT assay, Taxol with or without SNVIPhyb, summary over epithelial cancer cell lines.
From the text: The effects of SNVIPhyb were then investigated in the presence of Taxol, which affects microtubules, causing dividing cells to arrest in the mitosis (M) phase of growth.
The effect of SNVIPhyb was investigated on other epithelial cancer cell lines.

For `CCc1c2c(nc3ccc(OC(=O)N4CCC(N5CCCCC5)CC4)cc13)-c1cc3c(c(=O)n1C2)COC(=O)[C@]3(O)CC` [CPT-11], in [1] (5 μM SNH, NCI-H727), the “reduction of the IC50 of the chemotherapeutic agent by SNH” value was “at least two-fold”. In addition, in data set [1], the “nature of the combined effect with SNH” value is “synergistic”. Besides, the “effect of the combination with SNH” value (in data set [2]; in the data set on HT-29 human colon cancer) was “enhancing effect” each time. For the same compound, in data set [3], the “effect of the combination with the VIP antagonist” value is recorded as “synergistic”. Besides, the “enhancement of the antiproliferative activity of the chemotherapeutic agent by the lipophilic VIP antagonist” value in data set [3] is “enhance the antiproliferative activity”.
Turning to `CC(=O)O[C@H]1C(=O)[C@@]2(C)[C@H]([C@H](OC(=O)c3ccccc3)[C@]3(O)C[C@H](OC(=O)[C@H](O)[C@@H](NC(=O)c4ccccc4)c4ccccc4)C(C)=C1C3(C)C)[C@]1(OC(C)=O)CO[C@@H]1C[C@@H]2O` [Taxol], the “nature of the combined effect with SNH” value in data set [1] was “very effective; also recorded: synergistic”. In addition, in the data set on MDA-MB231 xenografts, the “tumor volume (height×width×depth)” value is listed as 613 mm^3. For the same compound, the half-inhibitory concentration (IC50) in data set [4] (10 μM SNVIPhyb, read-out: IC50 with 10 μM SNVIPhyb) turned out to be 3 µg/mL (≈ 3.51 µM); in [4] (Taxol alone, read-out: IC50), 10 µg/mL (≈ 11.7 µM); in data set [5] (MCF-7, 3 μM SNVIPhyb, read-out: IC50 in the presence of 3 μM SNVIPhyb), 24 µg/mL; in [5] (MCF-7, 10 μM SNVIPhyb, read-out: IC50 with 10 μM SNVIPhyb), 2 µg/mL (≈ 2.34 µM); in [5] (MCF-7, Taxol alone, read-out: IC50), 12 µg/mL (≈ 14.1 µM); in data set [6] (NCI-H157, 10 μM SNVIPhyb, read-out: IC50 with 10 μM SNVIPhyb), 2.5 µg/mL (≈ 2.93 µM). Moreover, the IC50 in data set [6] (NCI-H157, Taxol alone, read-out: IC50) is 10 µg/mL (≈ 11.7 µM); in data set [7] (NCI-H1299, 10 μM SNVIPhyb, read-out: IC50 with 10 μM SNVIPhyb) it was 3 µg/mL (≈ 3.51 µM); in data set [7] (NCI-H1299, Taxol alone, read-out: IC50), 8 µg/mL (≈ 9.37 µM); in data set [8] (PC-3, 10 μM SNVIPhyb, read-out: IC50 with 10 μM SNVIPhyb), 5 µg/mL (≈ 5.86 µM); in data set [8] (PC-3, Taxol alone, read-out: IC50), 15 µg/mL (≈ 17.6 µM); in [10] (read-out: IC50 values over the cell lines) it was 8 to 15 µg/mL (≈ 9.37 to 17.6 µM). Besides, in [10] (read-out: IC50 values over the cell lines in the presence of 10 μM SNVIPhyb), the half-maximal inhibitory concentration (IC50) fell in the range of 2.5 to 5 µg/mL. The “increase of cytotoxicity by SNVIPhyb” value in [5] (MCF-7, combination with SNVIPhyb) is on record as “increases the cytotoxicity”. Besides, in data set [5] (Taxol at 1 μg/mL), the “effect on MCF-7 cells” value is on record as “little effect”. The “reduction of the IC50 of Taxol by SNH” value in [9] is given as “about 6 fold”. The “interaction with SNVIPhyb at inhibiting cancer cell proliferation” value in [10] (combination with SNVIPhyb) is listed as “synergistic”. In data set [10] (epithelial cancer cells), the “increase of potency in the presence of SNVIPhyb” value is recorded as 3-6 fold.
